According to ChEMBL document CHEMBL1201862, “PubChem BioAssay data set” (2004):
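These data come from cells grown in 96-well plates and exposed to compound for 48 hours at five concentrations. GI50 = concentration required for 50% inhibition of growth.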 Calls of active or inactive are those of the source. Rule as the data show it: active = GI50 up to about 1.1 µM and inactive = higher.

How the values were obtained:
Test in all cases: DTP human tumour cell line panel, 48 h
KM-20L2 = tested on: KM-20L2
RXF 393 = tested on: RXF 393
NCI-H460 = tested on: NCI-H460
DLD-1 = tested on: DLD-1
SK-MEL-2 = tested on: SK-MEL-2
HT-29 = tested on: HT-29
KM12 = tested on: KM12
SR = tested on: SR
SNB-75 = tested on: SNB-75
A549 = tested on: A549
HOP-62 = tested on: HOP-62
SNB-19 = tested on: SNB-19
ACHN = tested on: ACHN
HCT-15 = tested on: HCT-15
HCC 2998 = tested on: HCC 2998
RPMI-8226 = tested on: RPMI-8226
SN12C = tested on: SN12C
MDA-N = tested on: MDA-N
MDA-MB-231 = tested on: MDA-MB-231
BT-549 = tested on: BT-549

Structure (SMILES) | GI50 (KM-20L2) | GI50 (RXF 393) | GI50 (NCI-H460) | GI50 (DLD-1) | GI50 (SK-MEL-2) | GI50 (HT-29) | GI50 (KM12) | GI50 (SR) | GI50 (SNB-75) | GI50 (A549) | GI50 (HOP-62) | GI50 (SNB-19) | GI50 (ACHN) | GI50 (HCT-15) [µM] | GI50 (HCC 2998) | GI50 (RPMI-8226) | GI50 (SN12C) | GI50 (MDA-N) | GI50 (MDA-MB-231) | GI50 (BT-549)
O=C1C(=Cc2c(O)cc(O)cc2O)C(=O)c2ccccc21 | > 43.5 µM (inactive) | 14.3 µM (inactive) | > 45.5 µM (inactive) | > 40.6 µM (inactive) | > 40.1 µM (inactive) | > 42.1 µM (inactive) | > 36.7 µM (inactive) | 13.6 µM (inactive) | 26.3 µM (inactive) | > 100 µM (inactive) | > 100 µM (inactive) | > 42.6 µM (inactive) | > 40.8 µM (inactive) | > 46.8 | > 41.9 µM (inactive) | 29 µM (inactive) | 19.5 µM (inactive) | – | – | –
O=C1C=CC(=O)c2ccc(=O)ccc21 | 22.2 µM (inactive) | 6.31 µM (inactive) | 21.2 µM (inactive) | 4.34 µM (inactive) | 18.1 µM (inactive) | 18.4 µM (inactive) | 19.1 µM (inactive) | 2.02 µM (inactive) | 19.9 µM (inactive) | 30.1 µM (inactive) | 25.9 µM (inactive) | 16.9 µM (inactive) | 9.68 µM (inactive) | 17 | 17.2 µM (inactive) | 3.15 µM (inactive) | 17.3 µM (inactive) | 13.3 µM (inactive) | 20.5 µM (inactive) | 17.7 µM (inactive)
COc1ccc(-c2cc(=O)c3cc(C)c(C)c(C(=O)O)c3o2)cc1 | > 100 µM (inactive) | > 100 µM (inactive) | > 100 µM (inactive) | > 100 µM (inactive) | > 100 µM (inactive) | > 100 µM (inactive) | > 100 µM (inactive) | > 100 µM (inactive) | > 100 µM (inactive) | > 100 µM (inactive) | > 100 µM (inactive) | > 100 µM (inactive) | 17.9 µM (inactive) | > 100 | > 100 µM (inactive) | > 100 µM (inactive) | > 100 µM (inactive) | – | – | –
CN1CCc2cc3c4cc2C1Cc1ccc(cc1)Oc1cc(ccc1O)CC1c2c(cc(O)c(c2O4)O3)CCN1C (centres undefined) | 2.9 µM (inactive) | 3.24 µM (inactive) | 1.87 µM (inactive) | 3.3 µM (inactive) | 1.67 µM (inactive) | 2.8 µM (inactive) | 1.86 µM (inactive) | 3.92 µM (inactive) | 3.53 µM (inactive) | 2.45 µM (inactive) | 5.4 µM (inactive) | 2.83 µM (inactive) | 7.52 µM (inactive) | 1.91 | 2.06 µM (inactive) | 1.64 µM (inactive) | 3.63 µM (inactive) | – | – | –
Cc1ccc(S(=O)(=O)OCC/C(=C\[Si](C)(C)C)c2ccccc2)cc1 | > 100 µM (inactive) | > 100 µM (inactive) | > 100 µM (inactive) | > 100 µM (inactive) | > 100 µM (inactive) | > 100 µM (inactive) | > 100 µM (inactive) | 24 µM (inactive) | > 100 µM (inactive) | > 100 µM (inactive) | > 100 µM (inactive) | > 100 µM (inactive) | > 100 µM (inactive) | > 100 | > 100 µM (inactive) | > 100 µM (inactive) | > 100 µM (inactive) | – | – | –
C=C1C(=O)C23CC1CCC2C12CO[C@@H]4OCC(C)(CC[C@@H]1OC3=O)C42 (some centres undefined) | 5.38 µM (inactive) | 2.51 µM (inactive) | 6.64 µM (inactive) | 3.52 µM (inactive) | 11.9 µM (inactive) | 2.54 µM (inactive) | 5.43 µM (inactive) | 1.35 µM (inactive) | 16.4 µM (inactive) | 10.9 µM (inactive) | 27 µM (inactive) | 8 µM (inactive) | 3.14 µM (inactive) | 2.9 | 16.4 µM (inactive) | 1.57 µM (inactive) | 8.32 µM (inactive) | – | – | –
O=C(N/N=C/c1cccc(F)c1)c1ccncc1 | > 100 µM (inactive) | > 100 µM (inactive) | > 100 µM (inactive) | > 100 µM (inactive) | > 100 µM (inactive) | > 100 µM (inactive) | > 100 µM (inactive) | > 100 µM (inactive) | > 100 µM (inactive) | > 100 µM (inactive) | > 100 µM (inactive) | > 100 µM (inactive) | > 100 µM (inactive) | > 100 | > 100 µM (inactive) | > 100 µM (inactive) | > 100 µM (inactive) | – | – | –
COC(=O)Nc1nc2cc(C(=O)c3cccs3)ccc2[nH]1 [NOCODAZOLE] | < 0.0132 µM (active) | 0.0134 µM (active) | 0.0179 µM (active) | 0.0344 µM (active) | < 0.0193 µM (active) | 0.0142 µM (active) | 0.0139 µM (active) | – | – | 0.0186 µM (active) | 0.0287 µM (active) | 0.0857 µM (active) | 0.225 µM (active) | 0.0198 | – | < 0.0132 µM (active) | 0.074 µM (active) | 0.0124 µM (active) | 0.171 µM (active) | 0.0527 µM (active)
